PMC3493614, “Structural and Binding Properties of Two Paralogous Fatty Acid Binding Proteins of Taenia solium Metacestode” (PLoS Neglected Tropical Diseases, 2012)
“And” between values parts separate entries of the source, which are not always exact repeats. Equal values may be shown once. Read-outs that look alike come from different tables or passages of the source.

What was measured:
recTsMFABP1 [1] = molecular target: T1, recTsMFABP1 (Taenia solium, UniProt Q2XNL7); experiment: Fluorometric ligand binding assay, recombinant TsMFABP1; conditions: for Kd / Vmax: one-site saturation model, 25°C; for Kd: ligand 0.1-10 µM; for Vmax: rate calculated from relative fluorescence (Vmax = Fmax), ligand 0.1-10 µM (FA analogs) or 0.1-10 mM (retinol); for Vmax/K d (binding rate constant): ratio of Vmax to K d
T1 sequence (Q2XNL7 entry or part of it): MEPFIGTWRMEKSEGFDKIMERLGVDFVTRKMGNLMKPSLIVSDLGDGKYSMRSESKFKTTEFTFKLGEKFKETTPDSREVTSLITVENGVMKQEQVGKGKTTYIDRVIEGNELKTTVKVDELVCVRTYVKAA
Experimental: (§1) All the proteins were delipidated for 2 h using Sephadex-LH (Sigma-Aldrich) prior to assay. The ligand binding profile of the native and rTsMFABPs were detected spectrofluorometrically using fluorescent FA analogs, including 11-([5-dimethylaminonaphthalene-1-sulfonyl]amino)undecannoic acid (DAUDA), dansyl-DL-α-aminocaprylic acid (DACA) (Molecular Probes), retinol (Sigma-Aldrich) and naturally fluorescent cis-parinaric acid (cPnA; Molecular Probes). Fluorescence emission spectra were recorded at 25°C with a total volume of 200 µl per well using black 96-well Microfluor 1 plates and an Infinite M-200 automated multi-detector (Tecan). The emission and excitation wavelengths for DAUDA, DACA, retinol and cPnA were 519, 519, 325 and 420 nm, and 345, 350, 350 and 315 nm, respectively. We included the TsM 120-kDa protein (10 µM) and recombinant 18 kDa (5 µM; a subunit of the TsM 120-kDa protein), which were proven not to have FA-binding activity, as negative controls during the measurements. All fluorescent stock compounds (10 mM dissolved in ethanol) were stored at −20°C in a dark room and were freshly diluted in ethanol prior to use. The equilibrium dissociation constants (K d) of the proteins bound to DAUDA, retinol and cPnA were estimated by adding increasing concentrations of respective ligands (0.1–10 µM for FA analogs and 0.1–10 mM for retinol) in a micro-quartz plate. Fluorescence intensities were normalized to the peak fluorescence intensity and corrected for background fluorescence of the ligand alone at each concentration. Corrected data were analyzed using the one-site saturation model and best fit algorithm contained in SigmaPlot9 software (y = V max X/K m+X, where y is relative fluorescence and X is concentrations of lipid ligand. V max can be substituted as Fmax [maximum fluorescence]). Competition assays were carried out by monitoring the change in fluorescence intensity at the peak transmission wavelength measured for either rTsMFABPs:DAUDA, rTsMFABPs:retinol or rTsMFABPs:cPnA complex in the presence of 10-fold excess oleic acid.
(§2) The partially purified native and recombinant proteins were subjected to delipidation. Each of the proteins (1 µM) was used in a hydrophobic ligand binding assay against the polarity-sensitive fluorophore-tagged FA analogs (0.1 µM) and retinol (5 mM). […] The TsMFABP2 also bound to DAUDA, although its specific activity was lower than that of the TsMFABP1. […] The retinol-binding activity of rTsMFABP2 appeared to be higher than that of rTsMFABP1. […] No binding activity was detected in the reactions with the TsM 120-kDa and recombinant 18-kDa proteins, which were used as negative controls.

recTsMFABP2 [2] = molecular target: T2, recTsMFABP2 (Taenia solium, UniProt F2WVQ3); experiment: Fluorometric ligand binding assay, recombinant TsMFABP2; conditions: for Vmax: rate calculated from relative fluorescence (Vmax = Fmax), ligand 0.1-10 µM (FA analogs) or 0.1-10 mM (retinol); for Vmax/K d (binding rate constant): ratio of Vmax to K d
T2 sequence (F2WVQ3 entry or part of it): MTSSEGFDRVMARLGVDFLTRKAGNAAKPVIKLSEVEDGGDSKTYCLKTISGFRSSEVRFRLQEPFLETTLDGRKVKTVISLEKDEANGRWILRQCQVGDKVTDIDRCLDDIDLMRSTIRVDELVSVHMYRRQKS
Experimental: as §1, §2

recTsMFABP1 [3] = molecular target: T1, recTsMFABP1; experiment: Fluorometric ligand binding assay, recombinant TsMFABP1; conditions: rTsMFABP1:DAUDA complex; oleic acid 5 µM (Figure 2B); protein 1 µM, DAUDA 0.1 µM
recTsMFABP2 [4] = molecular target: T2, recTsMFABP2; experiment: Fluorometric ligand binding assay, recombinant TsMFABP2; conditions: rTsMFABP2:retinol complex; oleic acid 5 µM (Figure 2D); protein 1 µM, retinol 5 mM
[5] = protein 1 µM, FA analog 0.1 µM, data not shown
[6] = one-site saturation model, ligand 0.1-10 µM, 25°C, read-out: K d
[7] = one-site saturation model, 25°C

How did the “Binding (fluorescence interaction mode)” value (recTsMFABP1 [1]; [5]) turn out when `CCCCCCC(NS(=O)(=O)c1cccc2c(N(C)C)cccc12)C(=O)O` (racemic) [DACA, dansyl-DL-α-aminocaprylic acid] was run?
The value was “interaction modes comparable to those with DAUDA”.

What about the “Binding (fluorescence interaction mode)” value (recTsMFABP2 [2]; [5]) of the same molecule?
The value was “interaction modes comparable to those with DAUDA”.

Which results are given for `CN(C)c1cccc2c(S(=O)(=O)NCCCCCCCCCCC(=O)O)cccc12` [DAUDA, 11-([5-dimethylaminonaphthalene-1-sulfonyl]amino)undecannoic acid]?
Kd (recTsMFABP1 [1]): 2150 ± 140 nM; Vmax (recTsMFABP1 [1]): 299.5±3.0; Vmax/K d (binding rate constant) (recTsMFABP1 [1]): 139.3 and 139.3±12.7; Kd (recTsMFABP2 [2]; [6]): 9400 ± 890 nM; Vmax (recTsMFABP2 [2]; [7]): 364.2±3.5; Vmax/K d (binding rate constant) (recTsMFABP2 [2]): 38.7 and 38.7±3.94

What does the source list for `CC1=C(/C=C/C(C)=C/C=C/C(C)=C/CO)C(C)(C)CCC1` [Retinol, retinol]?
Vmax (recTsMFABP1 [1]): 306.3±31.4; Vmax/K d (binding rate constant) (recTsMFABP1 [1]): 172.1±15.5; Vmax/K d (binding rate constant) (recTsMFABP1 [1]; listed as retinol): 172.1; Kd (recTsMFABP2 [2]): 980000 ± 80000 nM; Vmax (recTsMFABP2 [2]; [7]): 207.1±19.6; Vmax/K d (binding rate constant) (recTsMFABP2 [2]): 211.3±20.3; Vmax/K d (binding rate constant) (recTsMFABP2 [2]; listed as retinol): 211.3

For `CC\C=C/C=C/C=C/C=C\CCCCCCCC(=O)O` [cPnA, cis-parinaric acid], which Kd (recTsMFABP1 [1]) is on record?
Its Kd is 280 ± 20 nM.

What about the Vmax (recTsMFABP1 [1]) of the same molecule?
The Vmax was 608.4±57.8.

What about the “Vmax/K d (binding rate constant)” value (recTsMFABP1 [1]) of the same molecule?
The value was 2172.9 and 2172.9±214.6.

And the Kd (recTsMFABP2 [2]; [6])?
The Kd was 640 ± 40 nM.

What about the Vmax (recTsMFABP2 [2]; [7]) of the same molecule?
Its Vmax is 309.1±28.4.

And the “Vmax/K d (binding rate constant)” value (recTsMFABP2 [2])?
The value was 483.0 and 483.0±47.1.

For `CCCCCCCC/C=C\CCCCCCCC(=O)O` [oleic acid], which “Competition with DAUDA binding” value (recTsMFABP1 [3]) is on record?
Its value is “competitively inhibited by oleic acid in a dose-dependent manner”.

What about the “Competition with retinol binding” value (recTsMFABP2 [4]) of the same molecule?
Its value is “significant replacement of retinol from the binding site”.
